# Patent US7169932B2 (priority 2001, dated 2007)
# Like-named read-outs stand apart in the source and are kept apart here.
# Tests used:
# HIV-1 protease (Q7S) = biological target: T1, HIV-1 protease (Q7S) (Human immunodeficiency virus type 1 group M subtype B, UniProt P04585, Q495S); experiment: HIV-1 Protease RET Assay; format: biochemical
# T1 construct: made in house
# In short: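 Ki values came from a RET assay on refolded Q7S protease (2 nM active dimer) cleaving RE(EDANS)SQNYPIVQK(DABCYL)R at 5 μM, read at ex 340/em 490 nm. Reactions ran 12 min at 37 C in 0.1M sodium acetate pH 4.8, 1M NaCl, 5 mM DTT, 10% DMSO; curves were fit with the Morrison tight-binding equation.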
# HIV-1 = experiment: Cytopathic Effect (CPE) Inhibition Assay (XTT dye reduction); format: cell-based
# In short: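 CEM-SS or MT-2 cells infected with HIV-1 RF or NL4–3 (moi 0.025–0.819), 2×10^4 cells/well, incubated six days with half-log compound dilutions. Viability read by XTT formazan at 450 nm; EC50 is the concentration restoring 50% of uninfected-control formazan, CC50 from uninfected treated cells, therapeutic index CC50/EC50.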
# [1] = Ave. Ki (nM), RET assay, Q7S enzyme, pH 4.8, 37 C
# [2] = Human immunodeficiency virus 1, 144 h, read-out: Ave CPE EC50 (mM)
# [3] = Ki, table of drawn compounds, unit inferred
Compound,melting point [°C],Ki (HIV-1 protease (Q7S); [1]) [nM],EC50 (HIV-1; [2]) [nM],Ki (HIV-1 protease (Q7S); [3]) [nM],EC50 (HIV-1; Human immunodeficiency virus 1) [nM]
"Cc1c(O)cccc1C(=O)N[C@@H](Cc1ccccc1)[C@H](O)C(=O)N1CSC(C)(C)[C@H]1C(=O)NCc1cccc(OC(F)(F)F)c1 [Example A25, (R)-3-((2S,3S)-2-Hydroxy-3-{[1-(3-hydroxy-2-methyl-phenyl)-methanoyl]-amino}-4-phenyl-butanoyl)-5,5-dimethyl-thiazolidine-4-carboxylic acid 3-trifluoromethoxy-benzylamide]",102 to 105,5.8,248,–,–
"Cc1c(O)cccc1C(=O)NC(Cc1ccccc1)C(O)C(=O)N1CSC(C)(C)C1C(=O)NCc1cccc(C(F)(F)F)c1 (stereo not drawn) [Example A4, 3-(2-Hydroxy-3-{[1-(3-hydroxy-2-methyl-phenyl)-methanoyl]-amino}-4-phenyl-butanoyl)-5,5-dimethyl-thiazolidine-4-carboxylic acid 3-trifluoromethyl-benzylamide]",108 to 110,4.1,591,–,–
"Cc1ccccc1CNC(=O)[C@H]1N(C(=O)[C@@H](O)[C@H](Cc2ccccc2)NC(=O)c2ccno2)CSC1(C)C [Example B2, Isoxazole-5-carboxylic acid {(1S,2S)-1-benzyl-3-[(R)-5,5-dimethyl-4-(2-methyl-benzylcarbamoyl)-thiazolidin-3-yl]-2-hydroxy-3-oxo-propyl}-amide]",82 to 84,0.78,369,–,–
"CC/C=C/CNC(=O)[C@H]1N(C(=O)[C@@H](O)[C@H](Cc2ccccc2)NC(=O)c2cccc(O)c2C)CSC1(C)C [Example A36, (R)-3-((2S,3S)-2-Hydroxy-3-{[1-(3-hydroxy-2-methyl-phenyl)-methanoyl]-amino}-4-phenyl-butanoyl)-5,5-dimethyl-thiazolidine-4-carboxylic acid (E)-pent-2-enylamide]",113 to 115,0.59,519,–,–
"CC/C=C\CNC(=O)[C@H]1N(C(=O)[C@@H](O)[C@H](Cc2ccccc2)NC(=O)c2cccc(O)c2C)CSC1(C)C [Example A37, (R)-3-((2S,3S)-2-Hydroxy-3-{[1-(3-hydroxy-2-methyl-phenyl)-methanoyl]-amino}-4-phenyl-butanoyl)-5,5-dimethyl-thiazolidine-4-carboxylic acid (Z)-pent-2-enylamide]",112 to 113,0.13,161,–,–
"Cc1c(O)cccc1C(=O)N[C@@H](Cc1ccccc1)[C@H](O)C(=O)N1CSC(C)(C)[C@H]1C(=O)N[C@H](C)c1ccccc1 [Example A21, (R)-3-((2S,3S)-2-Hydroxy-3-{[1-(3-hydroxy-2-methyl-phenyl)-methanoyl]-amino}-4-phenyl-butanoyl)-5,5-dimethyl-thiazolidine-4-carboxylic acid ((R)-1-phenyl-ethyl)-amide]",114 to 115,1.9,717,–,–
"Cc1c(O)cccc1C(=O)N[C@@H](Cc1ccccc1)[C@H](O)C(=O)N1CSC(C)(C)[C@H]1C(=O)NCc1cccc(N(C)C)c1 [Example A39, (R)-3-((2S,3S)-2-Hydroxy-3-{[1-(3-hydroxy-2-methyl-phenyl)-methanoyl]-amino}-4-phenyl-butanoyl)-5,5-dimethyl-thiazolidine-4-carboxylic acid 3-dimethylamino-benzylamide]",105 to 106,0.27,367,–,–
"Cc1ccccc1CNC(=O)[C@H]1N(C(=O)[C@@H](O)[C@H](Cc2ccccc2)NC(=O)c2cccs2)CSC1(C)C [Example B5, (R)-3-{(2S,3S)-2-Hydroxy-4-phenyl-3-[(1-thiophen-2-yl-methanoyl)-amino]-butanoyl}-5,5-dimethyl-thiazolidine-4-carboxylic acid 2-methyl-benzylamide]",98 to 101,1.6,508,–,–
C=CCNC(=O)[C@H]1N(C(=O)[C@@H](O)[C@H](Cc2ccccc2)NC(=O)c2cccc(O)c2C)CSC1(C)C,173 to 175,–,–,–,–
"Cc1ccccc1CNC(=O)[C@@H]1[C@H](C)OCN1C(=O)[C@@H](O)[C@H](Cc1ccccc1)NC(=O)c1cccc(O)c1C [Example C8, (4S,5S)-3-((2S,3S)-2-Hydroxy-3-{[1-(3-hydroxy-2-methyl-phenyl)-methanoyl]-amino}-4-phenyl-butanoyl)-5-methyl-oxazolidine-4-carboxylic acid 2-methyl-benzylamide]",–,0.26,447,–,–
Cc1ccccc1CNC(=O)[C@H]1N(C(=O)[C@@H](O)[C@H](Cc2ccccc2)NC(=O)N2CCSC2)CSC1(C)C,–,–,–,14,1510
"C/C=C\CNC(=O)[C@H]1N(C(=O)[C@@H](O)[C@H](Cc2ccccc2)NC(=O)c2cccc(O)c2C)CSC1(C)C [Example A31, (R)-3-((2S,3S)-2-Hydroxy-3-{[1-(3-hydroxy-2-methyl-phenyl)-methanoyl]-amino}-4-phenyl-butanoyl)-5,5-dimethyl-thiazolidine-4-carboxylic acid (Z)-but-2-enylamide]",–,< 0.1,41,–,–
"Cc1c(O)cccc1C(=O)N[C@@H](Cc1ccccc1)[C@H](O)C(=O)N1CSC(C)(C)[C@H]1C(=O)NCc1cc(F)ccc1C(F)(F)F [Example A5, 3-(2-Hydroxy-3-{[1-(3-hydroxy-2-methyl-phenyl)-methyanoyl]amino}-4-phenyl-butanoyl)-5,5-dimethyl-thiazolidine-4-carboxlic acid fluoro trifluoromethyl-benzylamide]",–,2,433,–,–
Cc1c(O)cccc1C(=O)N[C@@H](Cc1ccccc1)[C@H](O)C(=O)N1CSC(C)(C)[C@H]1C(=O)NCc1cccc(OCC(C)C)c1,–,–,–,1.1,1110
"Cn1cccc1C(=O)N[C@@H](Cc1ccccc1)[C@H](O)C(=O)N1CSC(C)(C)[C@H]1C(=O)NCc1c(F)cccc1F [Example B24, 3-{2-Hydroxy-3-[(1-methyl-1H-pyrrole-2-carbonyl)-amino]-4-phenyl-butyryl}-5,5-dimethyl-thiazolidine-4-carboxylic acid 2,6-difluoro-benzylamide]",–,5.5,2320,–,–
"Cn1cccc1C(=O)N[C@@H](Cc1ccccc1)[C@H](O)C(=O)N1CSC(C)(C)[C@H]1C(=O)NCc1ccccc1Cl [Example B22, 3-{2-Hydroxy-3-[(1-methyl-1H-pyrrole-2-carbonyl)-amino]-4-phenyl-butyryl}-5,5-dimethyl-thiazolidine-4-carboxylic acid 2-chloro-benzylamide]",–,1.8,1610,–,–
Cc1cc(C(=O)N[C@@H](Cc2ccccc2)[C@H](O)C(=O)N2CSC(C)(C)[C@H]2C(=O)NCc2ccccc2C)no1,–,–,–,2.6,1310
"Cc1ccccc1CNC(=O)[C@H]1N(C(=O)[C@@H](O)[C@H](Cc2ccccc2)NC(=O)c2c(C)noc2C)CSC1(C)C [Example B10, 3,5-Dimethyl-isoxazole-4-carboxylic acid {(1S,2S)-1-benzyl-3-[(R)-5,5-dimethyl-4-(2-methyl-benzylcarbamoyl)-thiazolidin-3-yl]-2-hydroxy-3-oxo-propyl}-amide]",–,< 0.1,1100,–,–
"CCCNC(=O)[C@H]1N(C(=O)[C@@H](O)[C@H](Cc2ccccc2)NC(=O)c2ccccc2C)CSC1(C)C [Example B30, (R)-3-{(2S,3S)-2-Hydroxy-4-phenyl-3-[(1-o-tolyl-methanoyl)-amino]-butanoyl}-5,5-dimethyl-thiazolidine-4-carboxylic acid propylamide]",–,1.1,1230,–,–
